The numbers were not newly measured in patent publication US9463189B2 (BPV Holdings, LLC, priority 2007, dated 2016), which cites them from elsewhere.

Data set [1] relates to methionine- and choline-deficient diet model of NASH. To be noted: Nagasawa T et al., Eur. J. Pharmacol. (2006); cited from earlier work.
For data set [2], the system named is genetically obese rodent model. To be noted: Gary-Bobo, M. et al., Hepatology 2007; cited from earlier work.
The subject of another data set is PPAR. The settings on record: shown in US2006/0167012A1 and US2006/0205736A1; cited from earlier work.

Counter-ions that a name gives are not always drawn.

For `Cc1cc(SCc2sc(-c3ccc(C(F)(F)F)cc3)nc2C)ccc1OCC(=O)O` [GW501516], in data set [1], the “fatty acid β-oxidation” value is “increased”, the hepatic steatosis entry is “improved hepatic steatosis”, the hepatic triglyceride deposition entry was “decreased” and the inflammation result is on record as “decreased”. Also, in data set [1], the “inflammatory cytokines or chemokines” value is listed as “decreased” and the “number of activated hepatic stellate cells” value is reported as “decreased”.
`Cc1c(C(=O)NN2CCCCC2)nn(-c2ccc(Cl)cc2Cl)c1-c1ccc(Cl)cc1` [rimonabant]: the “outcome in genetically obese rodent model” value in data set [2] is reported as “positive outcome”.
With `C[C@@H]1CN(c2ccc(OC(F)(F)F)cc2)C[C@H](C)N1S(=O)(=O)c1cccc2c1C[C@@H](C(=O)O)C2` [Compound 1, (S)-4-[cis-2,6-Dimethyl-4-(4-trifluoromethoxy-phenyl)-piperazine-1-sulfonyl]-indan-2-carboxylic acid tosylate], the PPAR modulator activity entry in the data set on PPAR is “PPAR modulators”.
